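Assay format: 96-well plates, 48-hour exposure. GI50 = concentration required for 50% inhibition of growth.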 Calls of active or inactive are those of the source. Cut-off read from the data, not from the text of the source: active = GI50 up to about 1.1 µM and inactive = higher.
Columns and labels:
Assay in all cases: growth of human tumour cells (NCI), 48 h
[1] = test system: OVCAR-5
[2] = test system: RXF 393
[3] = test system: Hs-578T
[4] = test system: IGROV-1
[5] = test system: SW-620
[6] = test system: CCRF-CEM
[7] = test system: DU-145
[8] = test system: PC-3
[9] = test system: MDA-MB-435
[10] = test system: MDA-N
[11] = test system: A549
[12] = test system: SK-MEL-28
[13] = test system: NCI/ADR-RES
[14] = test system: CAKI-1
[15] = test system: HOP-92
[16] = test system: COLO 205
[17] = test system: HCC 2998
[18] = test system: SK-OV-3
[19] = test system: HT-29
[20] = test system: SN12C
[21] = test system: SF-539
[22] = test system: KM12
[23] = test system: SK-MEL-5
[24] = test system: M14
[25] = test system: A498
[26] = test system: U-251
[27] = test system: SNB-19
[28] = test system: HOP-62
[29] = test system: NCI-H522
[30] = test system: K562
[31] = test system: BT-549
[32] = test system: Malme-3M
[33] = test system: LOX IMVI
[34] = test system: NCI-H23
[35] = test system: UACC-62
[36] = test system: HCT-15
[37] = test system: HCT-116
[38] = test system: SNB-75
[39] = test system: OVCAR-8
[40] = test system: EKVX
[41] = test system: T47D
[42] = test system: OVCAR-3
[43] = test system: UACC-257
[44] = test system: SF-268
[45] = test system: SK-MEL-2
[46] = test system: SF-295
[47] = test system: RPMI-8226
[48] = test system: NCI-H460
[49] = test system: UO-31
[50] = test system: MDA-MB-231
[51] = test system: HL-60
[52] = test system: NCI-H226

O=C1Cc2c(-c3ccccc3)cc(-c3ccccc3)nc2-c2ccccc2N1
GI50 [1]: 3.54 µM (inactive) | GI50 [2]: 4.61 µM (inactive) | GI50 [3]: 4.07 µM (inactive) | GI50 [4]: 18.6 µM (inactive) | GI50 [5]: 5.47 µM (inactive) | GI50 [6]: 17.2 µM (inactive) | GI50 [7]: 5.82 µM (inactive) | GI50 [8]: 8.69 µM (inactive) | GI50 [9]: 15.9 µM (inactive) | GI50 [10]: > 10 µM (inactive) | GI50 [11]: 5.61 µM (inactive) | GI50 [12]: 5.12 µM (inactive) | GI50 [13]: 3.61 µM (inactive) | GI50 [14]: 3.64 µM (inactive) | GI50 [15]: 21.3 µM (inactive) | GI50 [16]: 2.21 µM (inactive) | GI50 [17]: 2.71 µM (inactive) | GI50 [18]: 5.22 µM (inactive) | GI50 [19]: 3.61 µM (inactive) | GI50 [20]: 4.04 µM (inactive) | GI50 [21]: 11 µM (inactive) | GI50 [22]: 2.84 µM (inactive) | GI50 [23]: 2.38 µM (inactive) | GI50 [24]: 3.44 µM (inactive) | GI50 [25]: 20 µM (inactive) | GI50 [26]: 3.09 µM (inactive) | GI50 [27]: 2.78 µM (inactive) | GI50 [28]: 2.64 µM (inactive) | GI50 [29]: 7.18 µM (inactive) | GI50 [30]: 8.02 µM (inactive) | GI50 [31]: 6.01 µM (inactive) | GI50 [32]: 9.79 µM (inactive) | GI50 [33]: 4.37 µM (inactive) | GI50 [34]: 6.65 µM (inactive) | GI50 [35]: 6.89 µM (inactive) | GI50 [36]: 1.57 µM | GI50 [37]: 2.24 µM (inactive) | GI50 [38]: 2.59 µM (inactive) | GI50 [39]: 3.56 µM (inactive) | GI50 [40]: 13.2 µM (inactive) | GI50 [41]: 10.9 µM (inactive) | GI50 [42]: 5.56 µM (inactive) | GI50 [43]: 19.6 µM (inactive) | GI50 [44]: 5.7 µM (inactive) | GI50 [45]: 2.66 µM (inactive) | GI50 [46]: 3.17 µM (inactive) | GI50 [47]: 39.7 µM (inactive) | GI50 [48]: 4.01 µM (inactive) | GI50 [49]: 3.71 µM (inactive) | GI50 [50]: 3.48 µM (inactive) | GI50 [51]: 75.9 µM (inactive) | GI50 [52]: 5.5 µM (inactive)

— ChEMBL document CHEMBL1201862, “PubChem BioAssay data set” (2004)
